Experimental data reported in patent US12642792B2, “CA2-IL15 fusion proteins for tunable regulation” (Obsidian Therapeutics, Inc., priority 2019, dated 2026).

Key:
[1] = system: Human primary T cells; test: In vitro antigen-independent expansion of T cells expressing constitutive or ACZ-regulated mbIL15 (cell numbers by flow cytometry); format: cell-based; conditions: 2 ng/mL exogenous IL15
Protocol: Human primary T cells capable of expressing constitutive mbIL15 or ACZ-regulated mbIL15 were prepared in accordance with methods described in Example 1 above.
After T cell transduction and expansion, CD3/CD28 beads were removed using magnets, cells were washed twice, resuspended in fresh media and counted. Cells were plated in 12-well plates at 1×10^6 in 2 mL. One well of untransduced cells was cultured in the presence of 2 ng/mL IL15 as a control. T cells expressing regulated constructs were cultured in the absence or presence of acetazolamide (ACZ, 30, 10, 3, 1, 0.3 μM). Cell numbers were monitored by flow cytometry every 3-4 days and cells were cultured for 10-12 days. At each time point 100 μL of cells were collected from wells and analyzed by flow cytometry. Cells were split as needed. Cell cultures were maintained in 12-well plates by taking a portion and adding media in a new plate. Volumes for each well were recorded before and after split to calculate final volume in cell number assessment. IL15 or ACZ were replenished at final concentration of the fresh media added during each split.
T cell numbers were determined by flow cytometry. Empty vector (EV) transduced cell numbers decreased to background levels between 3-5 days in the absence of IL15, and cells expanded 11-fold in the presence of 2 ng/mL exogenous IL15 (FIG. 3A). […]

[2] = system: cord blood-derived NK cells; test: Expression of constitutive and regulated mbIL15 in cord blood NK cells in response to ACZ (FACS); format: cell-based, human; conditions: NK cells transduced with IL15-293
Protocol: Cryopreserved mononuclear cell-fractionated cord blood units were obtained from BioBridge Global. Cord blood was diluted 1:1 with phosphate-buffered saline (PBS) and centrifuged over a cushion of Ficoll-Paque+(Sigma Cat. No. GE17-1440-02). The buffy coat comprising mononuclear cells (MNC) was collected, and the MNC were washed and counted. NK cells were isolated from MNC using EasySep Human NK Cell Isolation Kit (Stemcell Technologies Cat. No. 17955). NK cells were counted and checked for purity by FACS using CD56, CD16, CD3 and viability stain.
One day prior to NK cell isolation as described in Example 8, feeder cells (K562 cells expressing 4-1BBL and mbIL-21) were thawed in complete NK cell media (RPMI with Glutamax (ThermoFisher), 10% heat-inactivated fetal bovine serum (Gibco), 1× Penicillin/Streptomycin, 1 mM Sodium Pyruvate, 1×HEPES, 50 μM 2-Mercaptoethanol). On the day of NK cell isolation, 10×10^6 feeder cells were treated with mitomycin C to inhibit their proliferation and washed to remove excess drug. […] NK cell cultures were expanded by replenishing cell cultures with NK cell media and rhIL2 every two days, and analyzed by FACS for NK cell expansion. […]
mbIL15 expression was determined by flow cytometry using two staining reagents: IL15Ra-Fc and an anti-CD56 antibody. mbIL15+ cell frequency was determined relative to the number of NK cells as determined by the anti-CD56 antibody. […]

[3] = system: TIL; test: Expression of constitutive and regulated mbIL15 in TIL in response to ACZ (flow cytometry); format: cell-based, human; conditions: TIL transduced with IL15-293
Protocol: HEK293T cells were seeded on collagen coated tissue culture plates until 70% confluent. Cells were transfected with pELNS transfer vector carrying constitutive (IL15-292) or regulated (IL15-293) IL15 constructs, as well as packaging plasmids (pRSV.REV, pMDLg/pRRE and OT-BaEVg-002 (SEQ ID NO: 51)) using Lipofectamine 3000 transfection reagent in Opti-MEM media. Media was replaced 6-8 hrs post-transfection with serum-free media. Supernatants containing virus were harvested 24 hr post-transfection, fresh media was added, and supernatants were harvested again at 48 hr post-transfection. Viral supernatants were filtered to remove debris and concentrated by low speed ultracentrifugation. Virus were resuspended, aliquoted and stored at −80 C freezer.
96-well non-coated tissue culture plates were incubated with 35 μg per mL RetroNectin (Takara Bio) in PBS for 2 h at 37° C. or overnight at 4° C. RetroNectin was removed and the plates washed with PBS. […]
mbIL15 expression was determined by flow cytometry using two staining reagents: fluorochrome-conjugated anti-IL15 antibody as well as a recombinant protein comprised of extracellular domain of IL15Ra fused to human IgG1 Fc domain (IL15Ra-Fc). mbIL15+ cell frequency was determined based on co-staining with anti-IL15 and IL15Ra-Fc (identified as the IL15+IL15Ra-Fc+ double positive population).

With “exogenous IL15: exogenous IL15 (2 ng/mL) added to empty vector transduced T cells as control [reference compound]” the “Expansion of empty vector (EV) transduced T cells in the presence of exogenous IL15” value [1] was 11 -fold.

For `CC(=O)Nc1nnc(S(N)(=O)=O)s1` [ACZ, acetazolamide, reference compound], the “Effect of ACZ on mbIL15 in transduced NK” value [2] was “induces CA2 DRD-regulated mbIL15 in transduced NK” and the “Effect of ACZ on mbIL15 in transduced TIL” value [3] was “induces CA2 DRD-regulated mbIL15 in transduced TIL”.
